Patent US20240368096A1 (Enanta Pharmaceuticals, Inc., priority 2022, published 2024)

Tested on: HBV
Assay: HBV infection in HepG2-NTCP cells (HBeAg AlphaLISA in supernatants)
Format: cell-based
Details: Hepatitis B virus, 192 h; HBV infection of HepG2-NTCP cells; HBeAg in supernatants at day 8 post infection; read-out: Cellular EC50
Protocol: HepG2-NTCP A3 cells were maintained in DMEM media supplemented with GlutaMAX™ 10% fetal bovine serum, 1% penicillin/streptomycin, and 5 μg/mL puromycin at 37° C. in a humidified atmosphere with 5% CO2 in a collagen-coated tissue culture flask.
HepG2-NTCP cells were seeded in 384 well plate containing 16,000 cells/well two days prior to the infection. On the day of infection, compounds were 3-fold serially diluted in DMSO and pre-incubated with HepG2-NTCP cells for two hours before purified HBV addition. HBV infection was carried out at 2000 GE/cell with 4% PEG, and the final concentration of DMSO is 0.5%. On day one post infection, HBV-containing media was aspirated, cells were washed once with PBS and then maintained in 2.5% DMSO containing media for the remainder of the assay.
Supernatants from infected HepG2-NTCP cells were collected at day 8 post infection, and the amount of viral antigen HBeAg was measured by HBeAg AlphaLISA detection kit (PerkinElmer) following the manufacturer's recommended protocol. Irrespective of readout, compound concentrations that reduce viral product accumulation in supernatants by […] relative to DMSO controls (EC50) are reported. EC50 ranges are as follows: A<0.1 μM; B 0.1-1 μM; C>1 μM.

EC50, 100 to 1000 nM:
CN1[C@H](C2CCCCC2)CN(c2ccccc2)c2cc(Cl)c(-c3cc(C(=O)O)ccc3Cl)cc2S1(=O)=O [Example 151, (R)-4-chloro-3-(7-chloro-3-cyclohexyl-2-methyl-1,1-dioxido-5-phenyl-2,3,4,5-tetrahydrobenzo[f][1,2,5]thiadiazepin-8-yl)benzoic acid]
CN1[C@H](C2CCCCC2)CN(c2ccccc2)c2cc(C3CC3)c(-c3cc(F)c(F)c(C(=O)O)c3)cc2S1(=O)=O [Example 583, (R)-5-(3-cyclohexyl-7-cyclopropyl-2-methyl-1,1-dioxido-5-phenyl-2,3,4,5-tetrahydrobenzo[f][1,2,5]thiadiazepin-8-yl)-2,3-difluorobenzoic acid]
CCOc1ccc(-c2cc3c(cc2Cl)N(c2ccccc2)C[C@@H](C2CCCCC2)N(C)S3(=O)=O)cc1C(=O)O [Example 155, (R)-5-(7-chloro-3-cyclohexyl-2-methyl-1,1-dioxido-5-phenyl-2,3,4,5-tetrahydrobenzo[f][1,2,5]thiadiazepin-8-yl)-2-ethoxybenzoic acid]
CN1[C@H](C2CCCCC2)CN(c2ccccc2)c2cc(Oc3ccccn3)c(-c3ccc(F)c(C(=O)O)c3)cc2S1(=O)=O [Example 414]
CC(C)CC1CN(c2ccc(F)cc2)c2cc(Cl)c(-c3cccc(C(=O)O)c3)cc2S(=O)(=O)N1C (stereo not shown) [Example 331]
CCCCC1CN(c2ccccc2)c2cc(C(F)(F)F)c(-c3ccc(F)c(C(=O)O)c3)cc2S(=O)(=O)N1C (stereo not shown) [Example 568, 5-(3-butyl-2-methyl-1,1-dioxido-5-phenyl-7-(trifluoromethyl)-2,3,4,5-tetrahydrobenzo[f][1,2,5]thiadiazepin-8-yl)-2-fluorobenzoic acid]
CN1[C@H](c2ccccc2)CN(c2ccccc2)c2cc(Cl)c(-c3ccc(F)c(C(=O)O)c3)cc2S1(=O)=O [Example 54]
CC(C)C[C@@H]1CN(c2ccccc2)c2cc(Oc3ccc(C(F)(F)F)cc3)c(-c3ccc(F)c(C(=O)O)c3)cc2S(=O)(=O)N1C [Example 426]
CN1[C@H](CC(C)(C)C)CN(c2ccccc2)c2cc(Cl)c(-c3ccc(F)c(C(=O)O)c3)cc2S1(=O)=O [Example 50]
CN1[C@H](C2CCC(F)(F)CC2)CN(c2ccccc2)c2cc(Cl)c(-c3ccc(Cl)c(C(=O)O)c3)cc2S1(=O)=O [Example 29]
CN1[C@H](C2CCCCC2)CN(c2ccc(C(F)F)cc2)c2cc(Cl)c(-c3ccc(F)c(C(=O)O)c3)cc2S1(=O)=O [Example 303]
CN1[C@H](C2CCCCC2)CN(c2ccccc2)c2cc(Cl)c(-c3cc(NC(=O)OCCC(F)(F)F)c(C(=O)O)s3)cc2S1(=O)=O [Example 245]
CN1[C@H](C2CCCCC2)CN(c2ccccc2)c2cc(Cl)c(-c3ccc(C(F)(F)F)c(C(=O)O)c3)cc2S1(=O)=O [Example 143, (R)-5-(7-chloro-3-cyclohexyl-2-methyl-1,1-dioxido-5-phenyl-2,3,4,5-tetrahydrobenzo[f][1,2,5]thiadiazepin-8-yl)-2-(trifluoromethyl)benzoic acid]
CN1[C@H](C2CCCCC2)CN(c2ccccc2)c2cc(Cl)c(-c3cc(F)c(N)c(C(=O)O)c3)cc2S1(=O)=O [Example 190]
CN1[C@H](C2CCCCC2)CN(CC2CC2)c2cc(Cl)c(-c3ccc(F)c(C(=O)O)c3)cc2S1(=O)=O [Example 319, (R)-5-(7-chloro-3-cyclohexyl-5-(cyclopropylmethyl)-2-methyl-1,1-dioxido-2,3,4,5-tetrahydrobenzo[f][1,2,5]thiadiazepin-8-yl)-2-fluorobenzoic acid]
CN1[C@H](C2CCCCC2)CN(c2ccccc2)c2cc(Cl)c(-c3cc(C(=O)O)[nH]n3)cc2S1(=O)=O [Example 135, (R)-3-(7-chloro-3-cyclohexyl-2-methyl-1,1-dioxido-5-phenyl-2,3,4,5-tetrahydrobenzo[f][1,2,5]thiadiazepin-8-yl)-1H-pyrazole-5-carboxylic acid]

EC50, < 100 nM:
COCCOC(=O)Nc1ccc(-c2cc3c(cc2OCCOC)N(c2ccccc2)C[C@@H](C2CCCCC2)N(C)S3(=O)=O)cc1C(=O)O [Example 479, (R)-5-(3-cyclohexyl-7-(2-methoxyethoxy)-2-methyl-1,1-dioxido-5-phenyl-2,3,4,5-tetrahydrobenzo[f][1,2,5]thiadiazepin-8-yl)-2-(((2-methoxyethoxy)carbonyl)amino)benzoic acid]
COCCOc1cc2c(cc1-c1ccc(NC(=O)OCc3ccccc3)c(C(=O)O)c1)S(=O)(=O)N(C)[C@H](C1CCCCC1)CN2c1ccccc1 [Example 478, (R)-2-(((benzyloxy)carbonyl)amino)-5-(3-cyclohexyl-7-(2-methoxyethoxy)-2-methyl-1,1-dioxido-5-phenyl-2,3,4,5-tetrahydrobenzo[f][1,2,5]thiadiazepin-8-yl)benzoic acid]
CN1[C@H](C2CCC2)CN(c2ccccc2)c2cc(Cl)c(-c3ccc(OC(F)(F)F)c(C(=O)O)c3)cc2S1(=O)=O [Example 177]
CC(C)C[C@@H]1CN(c2ccccc2)c2cc(OCCc3ccoc3)c(-c3ccc(F)c(C(=O)O)c3)cc2S(=O)(=O)N1C [Example 461]
CC(C)[C@@H]1CN(c2ccccc2)c2cc(Cl)c(-c3ccc(Cl)c(C(=O)O)c3)cc2S(=O)(=O)N1C [Example 62]
CN1[C@H](C2CCCCC2)CN(c2ccccc2)c2cc(Cl)c(-c3cc(NC(=O)OC4CCC4)c(C(=O)O)s3)cc2S1(=O)=O [Example 250]
CN1[C@H](C2CCCCC2)CN(c2ccccc2)c2cc(Cl)c(-c3cccc(C(=O)O)c3F)cc2S1(=O)=O [Example 149, (R)-3-(7-chloro-3-cyclohexyl-2-methyl-1,1-dioxido-5-phenyl-2,3,4,5-tetrahydrobenzo[f][1,2,5]thiadiazepin-8-yl)-2-fluorobenzoic acid]
Cc1sccc1COc1cc2c(cc1-c1ccc(F)c(C(=O)O)c1)S(=O)(=O)N(C)[C@H](C1CCCCC1)CN2c1ccccc1 [Example 339]
COCCOc1cc2c(cc1-c1cc(NC(=O)OCCOC(C)C)c(C(=O)O)s1)S(=O)(=O)N(C)[C@H](C1CCCCC1)CN2c1ccccc1 [Example 518, (R)-5-(3-cyclohexyl-7-(2-methoxyethoxy)-2-methyl-1,1-dioxido-5-phenyl-2,3,4,5-tetrahydrobenzo[f][1,2,5]thiadiazepin-8-yl)-3-(((2-isopropoxyethoxy)carbonyl)amino)thiophene-2-carboxylic acid]
CN1[C@H](C2CCCCC2)CN(c2ccccc2)c2cc(OCCCCO)c(-c3ccc(F)c(C(=O)O)c3)cc2S1(=O)=O [Example 365]
CC(C)CC1CN(c2ccccc2)c2cc(Cl)c(-c3ccc(Cl)c(C(=O)O)c3)cc2S(=O)(=O)N1C (stereo not shown) [Example 38]
CN1[C@H](C2CCCCC2)CN(c2ccccc2)c2cc(Cl)c(-c3cc(C(=O)O)n(C)n3)cc2S1(=O)=O [Example 134]
CN1[C@H](C2CCCCC2)CN(c2ccccc2)c2cc(OCCCC3CCN(C(=O)OC(C)(C)C)CC3)c(-c3ccc(F)c(C(=O)O)c3)cc2S1(=O)=O [Example 368]
CC(C)Oc1cc2c(cc1-c1ccc(F)c(C(=O)O)c1)S(=O)(=O)N(C)[C@H](C1CCCCC1)CN2c1ccccc1 [Example 357]
CC(C)C[C@@H]1CN(c2ccccc2)c2cc(Oc3ccc(F)cc3)c(-c3ccc(F)c(C(=O)O)c3)cc2S(=O)(=O)N1C [Example 430]
CN1[C@H](C2CCCCC2)CN(c2ccccc2)c2cc(OCc3cscn3)c(-c3ccc(F)c(C(=O)O)c3)cc2S1(=O)=O [Example 341]
CC(C)CCCCCOc1cc2c(cc1-c1ccc(F)c(C(=O)O)c1)S(=O)(=O)N(C)[C@H](C1CCCCC1)CN2c1ccccc1 [Example 362]
CN1[C@H](C2CCCCC2)CN(c2ccccc2)c2cc(OCc3nccs3)c(-c3ccc(F)c(C(=O)O)c3)cc2S1(=O)=O [Example 340]

EC50, > 1000 nM:
CCCCCCCC[C@@H]1CN(c2ccccc2)c2cc(Cl)c(-c3ccc(C(=O)O)s3)cc2S(=O)(=O)N1C [Example 84]
CC(C)C[C@@H]1CN(c2ccccc2)c2cc(Nc3ccncc3)c(-c3ccc(Cl)c(C(=O)O)c3)cc2S(=O)(=O)N1C [Example 550]
CCCC[C@H]1CN(c2ccccc2)c2cc(N3CCCC3)c(-c3ccc(F)c(C(=O)O)c3)cc2S(=O)(=O)N1C [Example 543]
CN1[C@H](C2CCCCC2)CN(c2ccccc2)c2cc(O[C@@H]3CCCNC3)c(-c3ccc(F)c(C(=O)O)c3)cc2S1(=O)=O [Example 399]
CCCC[C@H]1CN(c2ccccc2)c2cc(N3CCCC3)c(-c3cccc(C(=O)O)c3)cc2S(=O)(=O)N1C [Example 538]
CN1[C@H](C2CCCCC2)CN(c2ccccc2)c2cc(OC3CCNCC3)c(-c3ccc(F)c(C(=O)O)c3)cc2S1(=O)=O [Example 394, (R)-5-(3-cyclohexyl-2-methyl-1,1-dioxido-5-phenyl-7-(piperidin-4-yloxy)-2,3,4,5-tetrahydrobenzo[f][1,2,5]thiadiazepin-8-yl)-2-fluorobenzoic acid]
